This note sets out measurements from US9101632B2, “Kinase inhibitors, prodrug forms thereof and their use in therapy” (AUCKLAND UNISERVICES LIMITED, priority 2009, dated 2015).

The structures appear in SMILES notation. Structures can show the parent of a compound that is named as a salt.

By melting point is commonly meant the temperature of the solid-liquid transition. On to `Cc1nc([N+](=O)[O-])c(C[N+](C)(C)C/C=C/C(=O)Nc2cc3c(Nc4ccc5c(cnn5Cc5cccc(F)c5)c4)ncnc3cn2)n1C` (as salt: bromide) [Compound 14, (2E)-N-[(1,2-dimethyl-4-nitro-1H-imidazol-5-yl)methyl]-4-[(4-{[1-(3-fluorobenzyl)-1H-indazol-5-yl]amino}pyrido[3,4-d]pyrimidin-6-yl)amino]-N,N-dimethyl-4-oxo-2-buten-1-ammonium bromide], for which the melting point was 188 to 192 °C (dec.).
